Test systems include HCT-15 colon; K-562 leukemia; MDA-MB-231 breast; OVCAR-3 ovarian; OVCAR-8 ovarian; RPMI-8226 leukemia; RXF 393 renal; SF-295 CNS; SK-MEL-2 melanoma; U251 CNS.
Holding throughout (assay): growth of human tumour cells (NCI), 48 h

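Each compound was tested at five concentrations against cells in 96-well plates for 48 hours. At the GI50, growth is halved. TGI denotes the concentration required for complete inhibition of growth.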 *1 amine or outer side, *2 acyl side, *3 side chain or, on linkers, in order; H or OH if unused. Where a SMILES comes first, the peptide text is derived from it. Bridges are numbered along the chain shown (N, C = ends). [ ]: non-standard residue; d: D form. The star is where a group is joined. Phe(3-Me) = Cc1cccc(C[C@H](N)C(=O)O)c1; NH(4-Cl-2-F-phenyl) = Fc1cc(Cl)ccc1N*; Pro(4R-Me) = C[C@H]1CN[C@H](C(=O)O)C1; Hyp = O=C(O)[C@@H]1C[C@@H](O)CN1; aThr = C[C@H](O)[C@H](N)C(=O)O; Pip = O=C(O)[C@@H]1CCCCN1; CO = O=C([*:1])[*:2] Some results are limits rather than exact numbers.

As for `C=C1C(=O)O[C@@H]2C[C@@H](C)[C@@H]3[C@@H](OC4OC(COC(C)=O)C(O)C(O)C4O)CC(=O)[C@@]3(C)C[C@H]12` (stereo partly drawn), the TGI with HCT-15 colon turned out to be 0.582 µM; in the assay with K-562 leukemia, 3.78 µM; in the assay with MDA-MB-231 breast, 8.92 µM; with OVCAR-3 ovarian it was 3.46 µM; with OVCAR-8 ovarian, 3.7 µM; in the assay with RPMI-8226 leukemia it was 8.53 µM. In addition, the TGI was 4.21 µM with RXF 393 renal, 31.3 µM in the assay on SF-295 CNS, 20.7 µM in the assay on SK-MEL-2 melanoma and 19.7 µM in the assay on U251 CNS.

Take `COc1cccc(/C=C/C(=O)c2cc3c(N)c(C(=O)Nc4cccc(Cl)c4C)sc3nc2C)c1`: the GI50 is 0.51 µM in the assay on HCT-15 colon; 0.241 µM in the assay on K-562 leukemia; 1.13 µM in the assay with MDA-MB-231 breast; 0.854 µM in the assay with OVCAR-3 ovarian; 1.49 µM with OVCAR-8 ovarian; 0.257 µM with RPMI-8226 leukemia. The GI50 was 0.573 µM in the assay on RXF 393 renal, 1.5 µM in the assay with SF-295 CNS, 1.64 µM in the assay on SK-MEL-2 melanoma and 0.959 µM in the assay on U251 CNS. Also, the TGI in the assay on HCT-15 colon was 1.46 µM; with K-562 leukemia, greater than 50 µM; in the assay on MDA-MB-231 breast, 2.68 µM; in the assay on OVCAR-3 ovarian, 2 µM; with OVCAR-8 ovarian, greater than 50 µM; with RPMI-8226 leukemia it was 1.57 µM. Further, the TGI in the assay with RXF 393 renal stood at 1.29 µM; in the assay on SF-295 CNS it was 9.56 µM; in the assay on SK-MEL-2 melanoma, 12.9 µM; with U251 CNS, 2.05 µM.

Take `Fc1ccc(-c2nnc3sc(-c4cccc(Cl)c4)nn23)cc1Cl`: the GI50 with HCT-15 colon, in the assay on K-562 leukemia, with MDA-MB-231 breast, in the assay with OVCAR-3 ovarian, with OVCAR-8 ovarian and in the assay on RPMI-8226 leukemia was greater than 100 µM throughout. For the same molecule, the GI50 was 39.5 µM in the assay on RXF 393 renal, greater than 100 µM in the assay on SF-295 CNS, greater than 100 µM in the assay on SK-MEL-2 melanoma and greater than 100 µM in the assay with U251 CNS. The TGI in the assay on HCT-15 colon, in the assay on K-562 leukemia, in the assay with MDA-MB-231 breast, in the assay on OVCAR-3 ovarian, with OVCAR-8 ovarian and in the assay on RPMI-8226 leukemia was greater than 100 µM in each case. For the same molecule, the TGI in the assay on RXF 393 renal, in the assay on SF-295 CNS, with SK-MEL-2 melanoma and with U251 CNS was greater than 100 µM throughout.

In the case of `CCc1ccc(CCC(=O)Nc2ncc(Cc3ccccc3)s2)o1`, the GI50 was 0.544 µM in the assay with HCT-15 colon; 0.529 µM in the assay with K-562 leukemia; 2.52 µM with MDA-MB-231 breast; 2.67 µM in the assay on OVCAR-3 ovarian; 4.5 µM with OVCAR-8 ovarian; 2.61 µM with RPMI-8226 leukemia. For the same molecule, the GI50 was 2.45 µM in the assay on RXF 393 renal, 3.29 µM with SF-295 CNS, 5.42 µM with SK-MEL-2 melanoma and 3.06 µM with U251 CNS. Also, the TGI in the assay with HCT-15 colon is greater than 100 µM; in the assay on K-562 leukemia, greater than 100 µM; with MDA-MB-231 breast it was 22.2 µM; with OVCAR-3 ovarian, 21.6 µM; with OVCAR-8 ovarian, greater than 100 µM; in the assay with RPMI-8226 leukemia, greater than 100 µM. Besides, the TGI in the assay on RXF 393 renal was 9.13 µM; in the assay with SF-295 CNS, greater than 100 µM; with SK-MEL-2 melanoma, greater than 100 µM; in the assay on U251 CNS, greater than 100 µM.

For `O=C(N/N=C/c1ccc(O)cc1O)c1ccc(Nc2ccnc(C(F)(F)F)c2)cc1`, the GI50 in the assay on HCT-15 colon was greater than 100 µM; with K-562 leukemia, greater than 20.7 µM; in the assay on MDA-MB-231 breast, 5.83 µM; with OVCAR-3 ovarian it was 0.35 µM; with OVCAR-8 ovarian, 7.76 µM; in the assay with RPMI-8226 leukemia, greater than 100 µM. Also, the GI50 in the assay on RXF 393 renal was 17.3 µM; in the assay on SK-MEL-2 melanoma it was greater than 59.1 µM; in the assay on U251 CNS, 0.248 µM. For the same molecule, the TGI with HCT-15 colon is greater than 100 µM; in the assay with K-562 leukemia it was greater than 100 µM; in the assay with MDA-MB-231 breast it was 57.2 µM; with OVCAR-3 ovarian, greater than 100 µM; with OVCAR-8 ovarian it was greater than 100 µM; in the assay with RPMI-8226 leukemia it was greater than 100 µM. For the same molecule, the TGI is 64.1 µM in the assay on RXF 393 renal, 23.3 µM in the assay on SF-295 CNS, greater than 100 µM in the assay with SK-MEL-2 melanoma and 21.2 µM in the assay on U251 CNS.

In the case of `CCC(C)/C=C(C)/C=C/C(=O)c1c(O)c(-c2ccc(O)cc2)c[nH]c1=O` (stereo not drawn), the GI50 in the assay with HCT-15 colon was 2.4 µM; in the assay on K-562 leukemia, 3.39 µM; with MDA-MB-231 breast, 5.09 µM; in the assay with OVCAR-3 ovarian, 2.79 µM; in the assay on OVCAR-8 ovarian, 3.12 µM; in the assay with RPMI-8226 leukemia it was 3.45 µM. Also, the GI50 in the assay with RXF 393 renal was 1.96 µM; with SF-295 CNS it was 2.89 µM; in the assay on SK-MEL-2 melanoma, 3.53 µM; with U251 CNS it was 3.01 µM. Moreover, the TGI in the assay with HCT-15 colon turned out to be 12.6 µM; in the assay on K-562 leukemia, 15.1 µM; in the assay with MDA-MB-231 breast, 21.4 µM; with OVCAR-3 ovarian, 9.33 µM; with OVCAR-8 ovarian it was 13.9 µM; in the assay with RPMI-8226 leukemia it was 17.6 µM. The TGI with RXF 393 renal was 6.97 µM; in the assay with SF-295 CNS, 13.7 µM; in the assay with SK-MEL-2 melanoma, 11 µM; in the assay with U251 CNS, 13 µM.

Turning to `Cc1cccc(C[C@H](NC(=O)Nc2ccc(Cl)cc2F)C(=O)N[C@@H]2C(=O)N3C[C@H](O)C[C@H]3C(=O)N3CCCC[C@H]3C(=O)N[C@@H](C)C(=O)N3C[C@H](C)C[C@H]3C(=O)O[C@H]2C)c1` ({NH(4-Cl-2-F-phenyl)-CO}-[Phe(3-Me)][aThr][Hyp][Pip]A[Pro(4R-Me)]; ester 2-C), the GI50 is 1.93 µM in the assay with HCT-15 colon; 0.221 µM in the assay with K-562 leukemia; 0.429 µM in the assay with MDA-MB-231 breast; 0.438 µM in the assay on OVCAR-3 ovarian; 0.435 µM with OVCAR-8 ovarian; 0.128 µM with RPMI-8226 leukemia. The GI50 was 1.31 µM in the assay on RXF 393 renal, 0.416 µM in the assay on SF-295 CNS, 0.635 µM with SK-MEL-2 melanoma and 0.44 µM with U251 CNS. The TGI in the assay with HCT-15 colon was 4.34 µM; with K-562 leukemia, greater than 33.7 µM; in the assay with MDA-MB-231 breast it was 1.71 µM; in the assay on OVCAR-3 ovarian, 1.75 µM; with OVCAR-8 ovarian, 15.6 µM; in the assay on RPMI-8226 leukemia, 1.63 µM. The TGI in the assay with RXF 393 renal was 2.96 µM; with SF-295 CNS, 1.8 µM; with SK-MEL-2 melanoma it was 2.37 µM; with U251 CNS it was 7.77 µM.

As to `c1ccc2[nH]c(-c3ccc(OCCCCCOc4ccc(-c5nc6ccccc6[nH]5)cc4)cc3)nc2c1`, the GI50 in the assay on HCT-15 colon was 1.12 µM; with K-562 leukemia, 1.04 µM; with MDA-MB-231 breast, 2.07 µM; with OVCAR-3 ovarian it was 0.828 µM; in the assay on OVCAR-8 ovarian, 4.06 µM; in the assay with RPMI-8226 leukemia, 2.21 µM. Also, the GI50 is 1.48 µM in the assay on RXF 393 renal, 5.61 µM with SF-295 CNS, 6.23 µM in the assay with SK-MEL-2 melanoma and 1.91 µM with U251 CNS. The TGI with HCT-15 colon stood at 8.11 µM; in the assay on MDA-MB-231 breast it was 7.08 µM; in the assay on OVCAR-3 ovarian it was 1.84 µM; with OVCAR-8 ovarian, 11.6 µM; in the assay on RPMI-8226 leukemia, 6.51 µM; with RXF 393 renal, 3.08 µM. Besides, the TGI in the assay on SF-295 CNS turned out to be 13.1 µM; in the assay on SK-MEL-2 melanoma it was 12.7 µM; in the assay with U251 CNS, 4.17 µM.

For `CNC1NC(=O)c2ccccc2N1Cc1ccc(F)cc1` (stereo not drawn), the TGI with HCT-15 colon, with K-562 leukemia, with MDA-MB-231 breast, in the assay with OVCAR-3 ovarian, in the assay with OVCAR-8 ovarian and in the assay with RPMI-8226 leukemia was greater than 100 µM in each case. The TGI with RXF 393 renal, in the assay on SF-295 CNS, in the assay with SK-MEL-2 melanoma and in the assay on U251 CNS was greater than 100 µM throughout.

`C=C(CN1CCN(c2ccccc2F)CC1)c1ccc(C(=O)Nc2ccccc2N)cc1`: the GI50 with HCT-15 colon was 0.737 µM; in the assay on K-562 leukemia it was 0.986 µM; with MDA-MB-231 breast, 0.24 µM; in the assay on OVCAR-3 ovarian it was 2.14 µM; with OVCAR-8 ovarian it was 1.92 µM; in the assay on RPMI-8226 leukemia, 1.16 µM. In addition, the GI50 in the assay with RXF 393 renal is 0.702 µM; with SF-295 CNS, 2.38 µM; in the assay with SK-MEL-2 melanoma it was 8.5 µM; in the assay on U251 CNS it was 1.4 µM. The TGI was greater than 100 µM in the assay on HCT-15 colon; greater than 100 µM in the assay with K-562 leukemia; 3.14 µM in the assay on MDA-MB-231 breast; 7.82 µM in the assay on OVCAR-3 ovarian; greater than 100 µM with OVCAR-8 ovarian; 3.78 µM with RPMI-8226 leukemia. Further, the TGI in the assay with RXF 393 renal was 7.08 µM; in the assay with SF-295 CNS, 18 µM; in the assay with SK-MEL-2 melanoma, greater than 100 µM; with U251 CNS, 14.7 µM.

For the molecule `COc1ccc(/C=C(\C#N)c2cc(OC)c3c(c2)OCO3)cc1`, the GI50 is 0.0118 µM in the assay on HCT-15 colon; less than 0.01 µM in the assay on K-562 leukemia; 0.0553 µM in the assay with MDA-MB-231 breast; less than 0.01 µM in the assay with OVCAR-3 ovarian; 0.026 µM with OVCAR-8 ovarian; 0.019 µM in the assay on RPMI-8226 leukemia. Also, the GI50 in the assay on RXF 393 renal is less than 0.01 µM; in the assay on SF-295 CNS, less than 0.01 µM; with SK-MEL-2 melanoma, less than 0.017 µM; in the assay on U251 CNS, less than 0.0179 µM. Moreover, the TGI is greater than 73.6 µM in the assay with HCT-15 colon; greater than 100 µM with K-562 leukemia; 46.3 µM with MDA-MB-231 breast; less than 0.0136 µM with OVCAR-3 ovarian; 34.5 µM in the assay with OVCAR-8 ovarian; 27 µM with RPMI-8226 leukemia. Besides, the TGI in the assay on RXF 393 renal was found to be 30.6 µM; in the assay with SF-295 CNS, 21 µM; in the assay on SK-MEL-2 melanoma, 2.81 µM; with U251 CNS it was 69.9 µM.

Consider `c1cncc(C(Nc2cccc3cccnc23)Nc2cccc3cccnc23)c1`, for which the TGI with HCT-15 colon, in the assay with K-562 leukemia, in the assay on MDA-MB-231 breast, in the assay with OVCAR-3 ovarian, in the assay on OVCAR-8 ovarian and with RPMI-8226 leukemia was greater than 100 µM each time. Also, the TGI in the assay on RXF 393 renal, in the assay on SF-295 CNS, in the assay on SK-MEL-2 melanoma and with U251 CNS was greater than 100 µM in each case.

The record behind these values is PubChem BioAssay (NCI).
